This note sets out measurements from paper PMC10667655 (Environmental Microbiology Reports, 2023).

What all share (assay type): cell-based
The test system of test [1] is T1, isoprene monooxygenase (IsoMO) of Rhodococcus sp. AD45.
T1 construct: gene isoA; native enzyme in whole cells of isoprene-grown bacteria; four-component soluble diiron monooxygenase, a2b2g2 oxygenase; with Isoprene monooxygenase oxygenase component subunit gamma; Isoprene monooxygenase Rieske-type ferredoxin component; Isoprene monooxygenase oxygenase component subunit beta
As to the kind of experiment: inhibition of isoprene uptake, headspace gas chromatography. As to conditions: whole cells; about 5 μM isoprene in liquid; 50 mM phosphate pH 7.0, 30°C; alkyne in DMSO.

Test [2] has as its system T2, isoprene monooxygenase (IsoMO) of Variovorax sp. WS11.
T2 construct: gene isoA; native enzyme in whole fermentor-grown cells; iso genes on a megaplasmid; with Isoprene monooxygenase oxygenase component subunit gamma; Isoprene monooxygenase Rieske-type ferredoxin component; Isoprene monooxygenase oxygenase component subunit beta
As to the kind of experiment: headspace isoprene depletion by gas chromatography, whole cells. As to conditions: whole fermentor-grown cells; O2 co-substrate; read-out: K m(app). An excerpt:
headspace isoprene depletion by gas chromatography, whole cells on isoprene monooxygenase (IsoMO) of Variovorax sp. WS11

Test [3] has as its system T1, isoprene monooxygenase (IsoMO) of Rhodococcus sp. AD45. As to the kind of experiment: headspace substrate depletion, whole cells, non-linear regression. The settings on record: whole isoprene-grown cells; 50 mM phosphate pH 7.0, 30°C; O2 co-substrate; read-out: K m(app). The source says:
headspace substrate depletion, whole cells, non-linear regression on isoprene monooxygenase (IsoMO) of Rhodococcus sp. AD45

For `C#CCCCCCC` [1‐octyne], the “% inhibition at 50 μM” value in test [1] is on record as 74%.

Consider `C=CC(=C)C` [isoprene, 2‐methyl‐1,3‐butadiene], for which the values for the Km in test [2] and in test [3] were 10.5 ± 3.9 µM and 4 ± 1.3 µM, respectively.

In the case of `C=CC` [propylene], in test [3], the Km was determined as 2 ± 0.8 µM.
